In patent publication US8075562B2, “Controlled release of biopharmaceutical growth factors from hydroxyapatite coating on bioresorbable interference screws used in cruciate ligament reconstruction surgery” (Wisconsin Alumni Research Foundation, priority 2007, dated 2011):
Entries after “also recorded” stand apart in the source; their conditions may differ. Like-named read-outs stand apart in the source and are kept apart here.

Columns and labels:
mesenchymal stem cells = assay: Stem cell-based bioactivity assay (alkaline phosphatase upregulation, osteogenic differentiation)
[1] = Binding of engineered BMP-2 peptide to hydroxyapatite in solution; conditions: preliminary results
Description: Binding growth factors to calcium phosphate minerals. Characterization of binding of engineered bone morphogenetic protein-2 peptide (eBMP-2) to CaP mineral materials is characterized. […] (See, FIGS. 10 and 11). […] (See, FIGS. 12 and 13). […] BMP-2 will be used because it has a high intrinsic affinity for CaP minerals.

KIPKA SSVPT ELSAI STLYL (KIPKASSVPTELSAISTLYL) [eBMP-2, engineered bone morphogenetic protein-2 peptide; hBMP-2: 73-92 (C78, 79S, M89T)]
osteogenic differentiation / alkaline phosphatase upregulation (mesenchymal stem cells): biologically active | osteogenic differentiation / alkaline phosphatase upregulation (mesenchymal stem cells; listed as e-BMP-2): promotes osteogenic differentiation | binding to hydroxyapatite in solution [1]: forms strong ionic bonds to hydroxyapatite; also recorded: binds to the hydroxyapatite mineral in solution
